Results published in US20250268748A1, “TREATMENT OF SPINAL MUSCULAR ATROPHY BY INDUCING HEAT SHOCK RESPONSE” (THE RESEARCH INSTITUTE AT NATIONWIDE CHILDREN'S HOSPITAL, priority 2016, published 2025).

How the values were obtained:
[1] = test system: SMN2 exon 7 inclusion in differentiated SH-SY5Y cells; assay: Oxidative stress treatment, RT-PCR of SMN2 splicing; format: cell-based; conditions: 20 μM for 24 hours (oxidative stress)
Experimental: FIGS. 2A-2C provide graphs and images showing that heat shock increases the functional splicing product of SMN2 in a dose and time-dependent manner. A. Neuroblastoma cell line, SHSY-5Y, were differentiated for 7-9 days in 5 μM retinoic acid and then treated with various stresses to characterize the level of SMN2 as a stress-responsive gene. RNA splicing levels of SMN1 and 2 were observed by performing RTPCR analysis on total mRNA harvested from cell lysates. […] B. To test the cell-type specificity of the heat shock effect on SMN splicing, we performed a heat shock treatment on several cell lines. All treatments were performed with 24 hours of 41° C. and compared with NT (37° C.) quantitation is shown (n-3). This treatment was performed in Differentiated SHSY-5Y cells, SMA patient fibroblasts (GM03813), SMA carrier fibroblasts (GM03814), and a breast cancer cell line (MCF-7) cells. Heat treatment induces a significant change in splicing in all cell lines tested. C. To test the duration of heat treatment necessary for heat shock induced splicing correction a time course was performed. Differentiated SHSY-5Y cells were treated with 41° C. for 1, 4, 8, and 24 hour time intervals. D. To test the quantity of heat required to elicit splicing correction, a heat treatment dose response was performed. Differentiated SHSY-5Y cells were treated with temperatures from 37° to 41° C. for 8 hours. […]

[2] = test system: SMN2 full length splicing in MCF-7 cells; assay: 17-DMAG HSP90 inhibition, RT-PCR of SMN exon 7 splicing with or without heat shock; format: cell-based; conditions: for SMN2 full length splicing: 8 hours
Experimental: FIG. 7 provide an image and a graph showing that HSP90 inhibition prevents heat-induced SMN splicing correction. HSP90 inhibition was performed with 17-DMAG in MCF-7 cells. Dose responses were analyzed at 0, 10, 20, 40 nM 17-DMAG for 8 hours, with or without 41° C. heat treatment. Total RN A was harvested and RT-PCR amplification of SMN transcripts was used to observe splicing levels of exon 7. Significance levels are: * p-value<0.05, **p-value <0.01.
To validate the role of HSP90 in the SMN2 splicing under heat shock, the HSP90 ATPase inhibitor, 17-DMAG was administered to MCF-7 cells. 17-DMAG was administered at 0, 10 nM, 20 nM, and 40 nM concentrations the same time as the heat shock treatment, for the duration of 8 hours. Experiments were performed in parallel at 37° C. and 41° C. […] (FIG. 7). […] Full length SMN2 is quantitated for all samples and three trials are graphed, showing significant alterations in SMN splicing.
17-DMAG (17-Dimethylaminoethylamino-17-demethoxygeldanamycin) was purchased from Cayman Chemicals and resuspended in DMSO to a 20 mM stock. Then treatments were administered to cultured cells at a density of 75% in 6 well plates.
Cells grown under normal conditions (37° C.) were grown in a 5% C02, humidified incubator. Cells grown under heat shock conditions (38°-41° C.) were cultured at 5% C02, humidified incubators set to respective temperatures and monitored for temperature fluctuations with calibrated digital thermometer. Cells were maintained at their temperature treatment for the duration of the time point and harvested for RNA or protein directly following treatment.
Total RNA was isolated from samples using RNeasy kits (Qiagen). cDNA was created from RNA with Roche Transcriptor Reverse Transcriptase. cDNA was created from 1.5 ug of total RNA using random hexamers (Roche). PCR was performed with Sigma Taq Polymerase to detect exon 7 splicing of SMN1 and SMN2 transcripts. Primers were designed to flank exon 7 to visualize both full length and exon-skipped products: forward primer in exon 6 and reverse primer in exon 8. PCR cycles were performed with the following conditions: annealing temperature 62° C., 30 sec; 72° C. extension, 1 min; for 35 cycles. Importantly, there exists a unique digestion site (Ddel) within this PCR amplicon in exon 8 of SMN2. Therefore, to distinguish between SMN1 and SMN2transcripts, PCR products were digested with the enzyme Ddel. Subsequent digested PCR products were then resolved on 2.5% agarose gels (product sizes: SMN1 full-length: 507 bp, SMN1A7: 453 bp, SMN2 full-length: 392 bp, SMN2M: 338 bp). Splicing ratios were determined by densitometry (ImageQuant software, GE Healthcare Life Sciences) and statistical analysis (two tailed t test) performed using Graphpad Prism software.

OO [HO2]
SMN2 exon 7 inclusion [1]: mild decreases in exon 7 inclusion

CO[C@H]1/C=C\C=C(/C)C(=O)NC2=CC(=O)C(NCCN(C)C)=C(C[C@@H](C)C[C@H](OC)[C@H](O)[C@@H](C)/C=C(\C)[C@@H]1OC(N)=O)C2=O [17-DMAG, 17-Dimethylaminoethylamino-17-demethoxygeldanamycin]
SMN2 full length splicing ([2]; 10 nM, 37° C.): significant decrease | SMN2 full length splicing ([2]; 10 nM, 41° C.): significantly decreased the full length splicing to even below baseline splicing at 37 °C | SMN2 full length splicing ([2]; 20 nM, 37° C.): began to approach basal splicing levels | SMN2 full length splicing ([2]; 20 nM, 41° C.): significantly decreased the full length splicing to even below baseline splicing at 37 °C | SMN2 full length splicing ([2]; 40 nM, 37° C.): began to approach basal splicing levels | SMN2 full length splicing ([2]; 40 nM, 41° C.): significantly decreased the full length splicing to even below baseline splicing at 37 °C | heat shock-induced full length SMN2 splicing (summary statement) ([2]; heat shock): prevents
